Data as given in patent publication EP0840727B1, “3-HYDROXY-2(1H)-[…] AGENTS” (priority 1995, dated 1997).
Marks after values point to notes of the source that are not given here.

Key:
[1] = Promoting excretion of 237Np(V) in mice by injected ligand; assay type: in vivo
Text: (§1) Animal studies were completed using methods detailed in Radiation Protection Dosimetry, in press, P. W. Durbin et al., "In Vivo Chelation of Am(III), Pu(IV), Np(V) and U(VI) in Mice by TREN-(Me-3,2-HOPO)"; Radiation Protection Dosimetry, 17, No. 1, 1989, p. 351, P. W. Durbin et al., "Removal of ^238Pu(IV) from Mice by Polycatechoylate, -Hydroxamate or -Hydroxypyridinonate Ligands"; Radiation Research, 99, 1984, p. 85, P. W. Durbin et al., "Specific Sequestering Agents for the Actinides ..."; Radiation Research, 99, 1984, p. 106, P. W. Durbin et al., "Removal of Pu and Am from Beagles and Mice ..."; Radiation Research, 81, 1980, p. 170, R. D. Lloyd et al., and P. W. Durbin et al., "Specific Sequestering Agents for the Actinides ...". The foregoing articles are hereby incorporated by reference.
The ^237Np(V) was obtained from J. Bucher of the LBL Actinide Chemistry group as NpO2Cl in 0.1 M HCl. It was diluted to the desired radioactivity concentration in 0.14M NaCl and the pH was adjusted to about 4.5 with NaOH just before use.
(§2) One of the comparative chelating agents TREN-Me-3,2-HOPO, was also tested for effectiveness in promoting excretion of ^241Am(III), ^237Np(V), and ^232U(VI) by injection into mice, as follows: Mice, in groups of five, each received an intravenous injection of (a) 1100 Bq of ^241AM(III) in 0.2 mL of citrate buffer, (b) 150 Bq of ^232UO2Cl2 plus 3.6 mg of ^235UO2Cl2 in 0.2 mL of saline, or (c) 200 Bq of ^237NpO2Cl (7.5 mg of ^237NpO2Cl) in 0.2 mL of saline. Three to five minutes later, […] of TREN-Me-3,2-HOPO was injected intraperitoneally in 0.5 mL of saline. The mice were killed 24 hours after the actinide injection, frozen, and dissected after partial thawing. The skeleton, soft tissues, and separated excreta were radioanalyzed by counting the ^241Am gamma rays, or the alpha particles emitted by ^237Np or ^232U (and its ingrowing daughters). Removal of those actinides from mice by injected TREN-Me-3,2-HOPO is summarized in Table 5, which also includes data for mice similarly treated with CaNa3-DTPA and for actinide-injected controls. […] The structure of Am(III)-TREN-Me-3,2-HOPO is considered to resemble that of the Gd(III) complexes (see example 20). Complexation of the fraction of Np(V) that is reduced in vivo to Np(IV) is considered to resemble that of Pu(IV). Complexation of U(VI) is considered to take place through binding to UO2^2+.

[2] = Promoting excretion of U(VI) in mice by injected ligand; assay type: in vivo
Text: as §1
The ^232U was obtained from the Isotope Products Laboratory, Burbank, CA, and ^234,235U was obtained as U metal from long-held LBL storage. The two U sources were combined and dissolved in 6N HNO3, dried, and redissolved in 0.1 N HCl. The daughter radioactivities were removed by elution from a Dowex-50X4 column (22 cm length, 0.7 cm diameter, 1.5 mL·min^-1 flow rate) with 3.2N HCl. The U fractions (previously identified by a trial run with ^234,235U alone) were combined, dried, and redissolved in 0.14M NaCl at pH 5.5.
as §2

[3] = Np(V), ligand 30 mmol.kg-1 i.p at 3 to 5 min after actinide i.v., kill at 24 h
[4] = Np(V), ligand 30 mmol.kg-1 i.p at 3 to 5 min after actinide i.v., kill at 24 h, pooled
[5] = intraperitoneally three to five minutes after actinide
[6] = U(VI), ligand 30 mmol.kg-1 i.p at 3 to 5 min after actinide i.v., kill at 24 h
[7] = U(VI), ligand 30 mmol.kg-1 i.p at 3 to 5 min after actinide i.v., kill at 24 h, pooled

## Cn1ccc(C(=O)NCCN(CCNC(=O)c2ccn(C)c(=O)c2O)CCNC(=O)c2ccn(C)c(=O)c2O)c(O)c1=O [TREN-Me-3,2-HOPO, N,N,N,-Tris[(3-hydroxy-1-methyl-2-oxo-1,2-dihydropyridin-4-yl)carboxamidoethyl]-amine]
[1]; [3]
  percent of injected actinide ± SD at 24 h, tissues: skeleton: 34 ± 4.5% of injected actinide
  percent of injected actinide ± SD at 24 h, tissues: soft tissue: 3.1 ± 1.1% of injected actinide
  percent of injected actinide ± SD at 24 h, whole body: 42 ± 11^d,e percent of injected actinide
[1]; [4]
  percent of injected actinide at 24 h, excreta: feces and GI contents: 17% of injected actinide
  percent of injected actinide at 24 h, excreta: urine 0-24 h: 40% of injected actinide
  percent of injected actinide at 24 h, tissues: kidneys: 1.0% of injected actinide
[1]; [5]
  Np content of the soft tissues compared with controls (in words): the Np content of the soft tissues was significantly reduced
[2]; [6]
  percent of injected actinide ± SD at 24 h, tissues: kidneys: 9.4 ± 6.0^d,e percent of injected actinide
  percent of injected actinide ± SD at 24 h, tissues: skeleton: 16 ± 2.4% of injected actinide
  percent of injected actinide ± SD at 24 h, tissues: soft tissue: 1.6 ± 0.3% of injected actinide
  percent of injected actinide ± SD at 24 h, whole body: 27 ± 8.5^d,e percent of injected actinide
[2]; U(VI), ligand 30 mmol.kg-1 i.p at 3 to 5 min after actinide i.v., kill at 24 h, livers of some groups pooled
  percent of injected actinide ± SD at 24 h, tissues: liver: 0.6 ± 0.3% of injected actinide
[2]; [7]
  percent of injected actinide at 24 h, excreta: feces and GI contents: 2.3% of injected actinide
  percent of injected actinide at 24 h, excreta: urine 0-24 h: 70% of injected actinide
[2]; [5]
  U burden in the kidneys compared with controls (in words): more than one-half of the U burden in the kidneys was removed
